In US11950907B2, “Method for non-invasive monitoring of fluorescent tracer agent with diffuse reflecting medium with time-varying optical properties” (MediBeacon Inc., priority 2017, dated 2024):

What was measured:
[1] = Transdermal fluorescence monitoring of renal elimination of the agent during perturbations (Example 1); assay type: in vivo; conditions: pig, time points later than 2 hours after agent injection, no baseline subtraction, FIG. 21B
Excerpt: A system similar to the system 200 described herein above was used to monitor the fluorescence produced during the renal elimination of an exogenous fluorescent agent, MB-102, using the methods described herein above, in particular the diffuse reflectance data correction method.
FIG. 21A is a graph summarizing the changes in the magnitude of the raw fluorescence signal (Flr) just prior to injection of the MB-102 fluorescent agent into a pig and for about six hours post-injection. During the post-equilibration portion, corresponding to a time of about 13:45 in FIG. 21A, the pig was subjected to a series of perturbations selected to vary the optical properties of the pig's skin and/or underlying tissues: administration of blood pressure medications to induce vasodilation/vasorestriction 2102, application of pressure to compress the tissue 2104, lateral movement of the sensor head 2106, SpO2 decrease 2108, SpO2 decrease 2110, remove/replace sensor head 2112/2114, and skin cooling 2116.
FIG. 21B is a graph summarizing the corrected intrinsic fluorescence signal (IF) corrected as described herein above with no baseline subtraction.

[2] = Transdermal fluorescence measurements from a patient before and after injection of the agent (FIG. 15); assay type: in vivo; conditions: about 10 hours after injection, after peak concentration
Description: FIG. 15 is a graph of fluorescence measurements obtained from a patient over a period of about 10 hours after injection of an exogenous fluorescence agent (MB-102) after a pre-injection period of about 3 hours. Referring to FIG. 15, the pre-injection/baseline period 1502 is characterized by a relatively low and stable fluorescence level, likely due the absence of […] fluorescent agent in the blood of the patient. […] Without being limited to any particular theory, it is thought the injected exogenous fluorescence agent is likely equilibrated across the extra-cellular space once the decay of the fluorescence is well-described by a […] (or a line on semi-log plot).

[3] = Absorption and emission spectra of the exogenous fluorescent agent (FIG. 3); assay type: physicochemical
Excerpt: By way of illustrative example, FIG. 3 is a graph summarizing the absorption spectra for HbO2 and Hb, as well as the absorption and emission spectra of frequency spectra of MB-102, an exogenous fluorescent agent in one aspect. Emission spectra for a blue LED light source and a green LED light source are also shown superimposed over the other spectra of FIG. 3. In this aspect, the system 200 may include a blue LED as the first light source 218, and the excitatory wavelength for the system 200 may be the isosbestic wavelength of about 450 nm. […] However, at wavelengths above about 500 nm, the HbO2/Hb spectra are less steeply sloped, and a broader band light source including, but not limited to, an LED with a bandpass filter may suffice for use as a first light source 218.
In another aspect, the excitatory wave length may be selected to enhance the contrast in light absorbance between the exogenous fluorescent agent and the chromophores within the tissues of the patient 202. […] Without being limited to any particular theory, a higher proportion of light illuminating the tissue of the patient 202 at a wavelength of about 450 nm will be absorbed by the MB-102 relative to the HbO2 and Hb, thus enhancing the efficiency of absorption by the MB-102 and reducing the intensity of light at the excitatory wavelength needed to elicit a detectable fluorescence signal. […]

Structure (SMILES): Nc1nc(C(=O)N[C@H](CO)C(=O)O)c(N)nc1C(=O)N[C@H](CO)C(=O)O [MB-102]
- time course of corrected intrinsic fluorescence (IF) signal [1]: expected single-exponential decay of the signal
- time course of fluorescence after injection [2]: relatively smooth exponential decrease
- light absorption relative to HbO2 and Hb ([3]; at the isosbestic wavelength of 452 nm): more than three-fold higher
- emission peak wavelength ([3]; emission spectrum): about 550 nm
